Experimental data taken from publication PMC9870890 (Nature Communications, 2023).
Substitutions are numbered along the chain they refer to. “And” between values parts separate entries of the source, which are not always exact repeats. Equal entries are not always repeated. Where two headings read alike, the source gives them in different places.

Assays:
M2RFL△9M_K383M = target: T1, M2RFL△9M_K383M (Homo sapiens, UniProt P08172, K383M/M139L/M142L/M143L/M1T/M248L/M296L/M368L/M456T/M45L); experiment: [3H]-NMS competition binding (ACh competition, GoA titration), engineered construct; set-up: unit not given here
T1 construct: we used the full-length M2R (M2RFL) with mutations at the three native methionines in ICL3; FLAG; His; made in house; host or cells: Sf9 membranes
T1 sequence (P08172 1-466 M1T/M45L/M139L/M142L/M143L/M248L/M296L/M368L/K383M/M456T): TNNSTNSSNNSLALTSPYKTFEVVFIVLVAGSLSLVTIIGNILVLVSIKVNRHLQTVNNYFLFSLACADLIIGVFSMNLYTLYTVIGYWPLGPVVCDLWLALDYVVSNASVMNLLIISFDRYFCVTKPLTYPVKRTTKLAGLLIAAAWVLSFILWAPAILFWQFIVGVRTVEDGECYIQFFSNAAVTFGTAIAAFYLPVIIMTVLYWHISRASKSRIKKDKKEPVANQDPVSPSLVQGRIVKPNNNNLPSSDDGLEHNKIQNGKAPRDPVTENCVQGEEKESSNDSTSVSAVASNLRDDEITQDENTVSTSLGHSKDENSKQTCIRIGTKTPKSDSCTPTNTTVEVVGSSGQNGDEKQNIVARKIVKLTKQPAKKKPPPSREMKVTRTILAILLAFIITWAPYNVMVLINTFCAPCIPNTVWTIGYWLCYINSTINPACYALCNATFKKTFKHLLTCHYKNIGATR
Description: (§1) Purified M2R receptor was reconstituted into high-density lipoprotein (HDL) particles constituting apolipoprotein A1(APOA1) and mixture of POPG: POPC lipids with 3:2 (mol:mol)ratio as previously described. […] Membranes or HDL particles were separated from excess [^3H]-NMS by Whatman GF/B filters using a Brandel 48-well harvester. The bound radioligand were read on a liquid scintillation counter (MicroBeta Jet, PerkinElmer). Data were analyzed by GraphPad Prism 9.2.0. […]
(§2) Data are given as mean
(§3) ± SEM from 3 independent experiments.
(§4) M2RFL△9M_K383M and M2RFL_WT.
(§5) SEM from 3 independent experiments. […]

M2RFL_WT = target: T2, M2RFL_WT (Homo sapiens, UniProt P08172); experiment: [3H]-NMS competition binding (ACh competition, GoA titration), wild type full length M2R; set-up: unit not given here
T2 construct: made in house; host or cells: Sf9 membranes
T2 sequence (P08172 1-466): T1 sequence (P08172 1-466 M1T/M45L/M139L/M142L/M143L/M248L/M296L/M368L/K383M/M456T) with T1M, L45M, L139M, L142M, L143M, L248M, L296M, L368M, M383K, T456M
Description: as §1, §2, §3, §4, §5

M2R = target: T3, M2R (Homo sapiens, UniProt P08172, M139L/M142L/M1T/M248L/M296L/M368L/M456T/M45L); assay type: biochemical; settings: for Phosphorylation intensity: 100 μM Ixo or 1 mM carbachol
T3 construct: We used a full-length construct M2RFL△8 M for complexing with miniGαo and β-arrestin-1; FLAG (N); 8xHis (C); made in house; host or cells: Sf9 insect cells
T3 sequence (P08172 1-466 M1T/M45L/M139L/M142L/M248L/M296L/M368L/M456T): T1 sequence (P08172 1-466 M1T/M45L/M139L/M142L/M143L/M248L/M296L/M368L/K383M/M456T) with L143M, M383K
Description: We used a full-length construct M2RFL△8 M for complexing with miniGαo and β-arrestin-1. The receptor was purified as described above for cryo-EM sample. Excess GRK2 was mixed with the M2R in a buffer composed of 20 mM HEPES pH 7.5, 100 mM NaCl, 0.01% MNG, 0.003% CHS, 500 μM ATP in the presence and absence of 100 μM Ixo or 1 mM carbachol to initiate the phosphorylation at room temperature. The extent of phosphorylation at various time points (from 0 to 120 min) was evaluated by Pro-Q and Coomassie blue staining. The final phosphorylated receptor (Ixo-bound) was further evaluated by ion-exchange chromatography. The complex formation test was performed as follows: unphosphorylated Ixo-bound M2RFL△8 M or phosphorylated M2RFL△8 M was mixed with miniGαo or β-arrestin-1, respectively and incubated on ice for 30 min. The receptor alone or mixed complex sample were then analyzed by SEC against 20 mM HEPES pH 7.5, 100 mM NaCl, 0.01% MNG, 0.003% CHS in the presence of 10 μM Ixo.

SMILES: CC(=O)OCC[N+](C)(C)C [ACh, acetylcholine]
- ACh competition curve data, Supplementary Fig. 4c (M2RFL△9M_K383M; log[M] (ACh) -3): 3.636 and 3.347 and 4.163
- ACh competition curve data, Supplementary Fig. 4c (M2RFL△9M_K383M; log[M] (ACh) -4): 19.7375 and 21.0617 and 22.4385
- ACh competition curve data, Supplementary Fig. 4c (M2RFL△9M_K383M; log[M] (ACh) -5): 66.4796 and 63.8048 and 73.8724
- ACh competition curve data, Supplementary Fig. 4c (M2RFL△9M_K383M; log[M] (ACh) -6): 76.3279 and 99.6814 and 101.207
- ACh competition curve data, Supplementary Fig. 4c (M2RFL△9M_K383M; log[M] (ACh) -7): 102.154 and 99.3043 and 98.5413
- ACh competition curve data, Supplementary Fig. 4c (M2RFL△9M_K383M; log[M] (ACh) -8): 82.4578 and 100.655 and 103.084
- ACh competition curve data, Supplementary Fig. 4c (M2RFL_WT; log[M] (ACh) -3): 7.417 and 5.223 and 6.047
- ACh competition curve data, Supplementary Fig. 4c (M2RFL_WT; log[M] (ACh) -4): 27.7888 and 31.3709 and 30.2311
- ACh competition curve data, Supplementary Fig. 4c (M2RFL_WT; log[M] (ACh) -5): 61.0434 and 71.3013 and 69.7784
- ACh competition curve data, Supplementary Fig. 4c (M2RFL_WT; log[M] (ACh) -6): 79.8736 and 96.1082 and 98.1674
- ACh competition curve data, Supplementary Fig. 4c (M2RFL_WT; log[M] (ACh) -7): 94.365 and 99.8819 and 105.753
- ACh competition curve data, Supplementary Fig. 4c (M2RFL_WT; log[M] (ACh) -8): 97.3725 and 89.5377 and 100.935

SMILES: C[N+](C)(C)CC#CCOC1=NOCC1 [Ixo, iperoxo]
- Phosphorylation intensity (M2R; Time 5 min): 4552.74
- Phosphorylation intensity (M2R; Time 10 min): 10530.1
- Phosphorylation intensity (M2R; Time 15 min): 15003.3
- Phosphorylation intensity (M2R; Time 30 min): 17454.3
- Phosphorylation intensity (M2R; Time 60 min): 18635.2
- Phosphorylation intensity (M2R; Time 120 min): 18093.2
- induction of GRK2-mediated phosphorylation of M2R (M2R; compared with carbachol): more efficient than carbachol
